Assay [1] concerns the target T1, SEQ ID 31, mutant bx-type glucosyl transferase (Zea mays, UniProt Q8W2B7, S121V).
T1 construct: 31; nd; 8.84E+06; 5.57E+06; His tag; made in house
The experiment in a line: LC/MS glucosyl transferase assay (glucoside peak area), purified enzyme. Format: biochemical. The settings on record: about 60 min, ~15 pmol enzyme, relative quantification only. The method, then: (§1) In an alternative method for assaying the various enzymes, the test glucosyl transferase enzyme is reacted with substrates exactly as above except that the assay is stopped by adding an equal volume of acetonitrile. Alternatively 50 or 100 μl samples from assay reactions are added to 500 μl ethyl acetate to stop the reaction. In this case samples are then vortexed and 400 μl of the ethyl acetate partition removed, dried down, and resuspended in 100 μl 80:20 acetonitrile/water. The formation of product gluco side and/or disappearance of substrate test herbicide is then monitored directly by LC/MS. Samples are analyzed by LC-MS using an Agilent 1290 liquid chromatography system and Thermo Q-Exactive mass spectrometer. The chromatography is achieved on a Waters Acquity C18 BEH (50×2.1 mm) 1.7 μm particle size column, using a 6 minute gradient run of Water (0.2% formic acid) and Acetonitrile. The Q-Exactive is operated in positive ionisation electrospray mode, using Full scan-AIF mode, at 35,000 resolution, between 100-800 m/z. All analytes are identified from the full scan data to within at least 5 ppm accuracy of their predicted pseudo-molecular ion [M+H]^+ m/z value. In order to obtain quantitative data standard curves are run using herbicides and herbicide glucosides synthesized as standards. Where these synthetic glucosides were not available the LC/MS assay could only be used to provide relative data.
(§2) DNA sequences, optimized for E. coli codon usage, were cloned, expressed and the various proteins purified and assayed as described in the foregoing examples. Using the UDP assay (as described in examples 1, 3 and 6) the data obtained from the Zea mays bx8 w/t protein and its variants was noisy due to relatively high background rates in DMSO reagent blanks. The values reported in the table 15 were thus monitored by LC/MS as described in example 1.

Assay [2] addresses T2, SEQ ID 33, mutant bx-type glucosyl transferase (Zea mays, UniProt Q8W2B7, A285K).
T2 construct: 33; 1.70E+05; 3.59E+07; 9.27E+06; His tag; made in house
The assay is described as above. Format: biochemical. The settings on record: about 60 min, ~15 pmol enzyme, relative quantification only. The method, then: as §1, §2

The subject of assay [3] is wild type tobacco plants. The experiment in a line: Glass house spray test on tobacco, percent damage. In kind it is in vivo. The following applies: 14 DAT. The protocol:
Once rooted, plantlets are transferred from agar and potted into 50% peat, 50% John Innes Soil No. 3 with slow-release fertilizer in 3 inch round pots and left regularly watered to establish for 8-12d in the glass house. Glass house conditions are about 24-27° C. day; 18-21° C. night and approximately a 14h photoperiod. Humidity is adjusted to ˜65% and light levels used are up to 2000 μmol/m^2 at bench level.
Three transgenic populations of about forty tobacco plants and comprising, a glucosyl transferase gene encoding either zmBX8 (SEQ ID NO 2) or zmBX9 (SEQ ID NO 1) were thus produced. A sub-set of about 30 plants were selected on the basis of similar size from each population for spray testing. The plants were then sprayed with 30 g/ha of Compound VI. VI was mixed in water with 0.2-0.25% X-77 surfactant and sprayed from a boom on a suitable track sprayer moving at 2 mph with the nozzle about 2 inches from the plant tops. Spray volume was 200 l/ha. Plants were assessed for damage and scored at 7 and 14 days after treatment (DAT).
In a further example, Zea mays BX8 or BX9 or orthologues of BX8/9, are altered to carry amino acid variants at various positions which increase tolerance to the alcohol and aminal PSII herbicides as described in the example above. DNA sequences that encode these polypeptides (optimized for tobacco or, optionally, codon optimized according to a target crop such as soybean) were prepared for tobacco transformation as described in example 10. […] Transgenic tobacco populations expressing SEQ ID NOs 16 and 17 were generated alongside a population expressing the parental zmBX9 sequence (SEQ ID 1). These populations were sprayed with herbicide V and VI at rates of 200 and 500 g/ha. Plants were assessed for damage and scored at 14 days after treatment (DAT). The results are depicted in Table 19 and also in FIG. 6.

Assay [4] concerns transgenic tobacco plants expressing zmBX9 (SEQ ID No 1). The experiment in a line: Glass house spray test on tobacco, percent damage. Format: in vivo. The following applies: for percent damage: 14 DAT, tobacco expressing SEQ ID NO 1, lines 6266 and 6291, clonal plants A-E. The method, then:
In the present example, Zea mays BX8 or BX9 or orthologues of BX8/9, for example SEQ ID Nos. 1-59 and various herbicide-active mutations and combinations of mutations thereof (e.g. as listed in Tables 1-9) are expressed in transgenic tobacco. DNA sequences that encode these polypeptides (optimized for tobacco or, optionally, codon optimized according to a target crop such as soybean) are prepared synthetically and obtained commercially from Genewiz (South Plainfield, USA). Each sequence is designed to include a 5′ fusion with TMV omega 5′ leader (SEQ ID NO: 109). The DNA sequences are flanked at the 5′ end with XhoI and at the 3′ end with KpnI to facilitate direct cloning into a suitable binary vector for Agrobacterium-based plant transformation.
In a particular example, the expression cassette, comprising the TMV omega 5′ leader and a BX encoding gene of interest is excised using XhoI/KpnI and cloned into similarly digested pBIN 19 (Bevan, Nucl. Acids Res. (1984) behind a double enhanced 35S promoter (SEQ ID NO:110) and ahead of a NOS 3′ transcription terminator (SEQ ID NO:111) and then transformed into E. coli DH5 alpha competent cells (see FIG. 5). DNA recovered from the E. coli is used to transform Agrobacterium tumefaciens LBA4404, and the transformed bacteria are selected on media contain rifampicin and kanamycin. Tobacco tissue is subjected to Agrobacterium-mediated transformation using methods well described in the art or as described herein. For example, a master plate of Agrobacterium tumefaciens containing the BX glucosyltransferase expressing binary vector is used to inoculate 10 ml LB (L broth) containing 100 mg/l Rifampicin plus 50 mg/l Kanamycin using a single bacterial colony. This is incubated overnight at 28° C. shaking at 200 rpm. This entire overnight culture is used to inoculate a 50 ml volume of LB containing the same antibiotics. Again this is cultured overnight at 28° C. shaking at 200 rpm. The Agrobacterium cells are pelleted by centrifuging at 3000 rpm for 15 minutes and then resuspended in MS (Murashige and Skoog) medium containing 30 g/l sucrose, pH 5.9 to an OD (600 nM)=0.6. This suspension is dispensed in 25 ml aliquots into petri dishes.
Once rooted, plantlets are transferred from agar and potted into 50% peat, 50% John Innes Soil No. 3 with slow-release fertilizer in 3 inch round pots and left regularly watered to establish for 8-12d in the glass house. Glass house conditions are about 24-27° C. day; 18-21° C. night and approximately a 14h photoperiod. […]
Three transgenic populations of about forty tobacco plants and comprising, a glucosyl transferase gene encoding either zmBX8 (SEQ ID NO 2) or zmBX9 (SEQ ID NO 1) were thus produced. […] Plants were assessed for damage and scored at 7 and 14 days after treatment (DAT). […]

2 compounds from patent US20200270588A1, “GLUCOSYL TRANSFERASE POLYPEPTIDES AND METHODS OF USE” (Syngenta Participations AG, priority 2017, published 2020) can be followed below.

Several values for one entry are separate records, joined by “and”; a condition that tells them apart may be missing. Identical values can stand only once.

T2 sequence (Q8W2B7 whole entry A285K): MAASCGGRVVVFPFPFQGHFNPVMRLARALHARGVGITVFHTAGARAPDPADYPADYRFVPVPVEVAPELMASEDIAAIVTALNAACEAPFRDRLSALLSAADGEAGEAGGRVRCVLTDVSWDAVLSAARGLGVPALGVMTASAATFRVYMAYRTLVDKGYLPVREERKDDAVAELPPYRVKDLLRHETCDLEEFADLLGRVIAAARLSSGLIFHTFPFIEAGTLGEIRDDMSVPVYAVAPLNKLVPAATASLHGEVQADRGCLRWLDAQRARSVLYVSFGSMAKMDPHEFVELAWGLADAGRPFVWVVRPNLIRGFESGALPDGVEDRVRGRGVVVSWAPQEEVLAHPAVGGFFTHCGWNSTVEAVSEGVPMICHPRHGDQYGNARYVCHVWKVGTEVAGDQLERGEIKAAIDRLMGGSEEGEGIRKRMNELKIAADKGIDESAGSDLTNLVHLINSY
T1 sequence (Q8W2B7 whole entry S121V): as the sequence (Q8W2B7 whole entry A285K) above, with S121V, K285A counted along it

Take `CON1C(=O)N(c2cc(C(F)(F)F)ccn2)C(O)[C@@H]1C` (stereo partly drawn) [Compound VI]: the “integrated peak area of beta-glucoside product” value in assay [1] is 8.84E+06 and 1.04E+07; in assay [2], 3.59E+07 and 3.45E+07. In addition, the percent damage in assay [3] (30 g/ha compound VI, plants A, B, C) was 75% and 95% and 85%; in assay [3] (500 gai/ha VI, WT tobacco plants 1-9) it was 100%; in assay [4] (500 gai/ha VI), 95% and 90% and 100% and 60% and 70% and 75% and 80%. The “tolerance” value is reported as “demonstrate tolerance” in assay [4] (30 g/ha, several transgenic lines) and “only partial tolerance” in assay [4] (high rates, best two events).
Consider `CN1CC(O)N(c2cc(C(F)(F)F)ccn2)C1=O` (stereo not drawn) [Compound V], for which the “integrated peak area of beta-glucoside product” value in assay [1] was 5.57E+06 and 5.59E+06; in assay [2] it was 9.27E+06 and 9.76E+06. Also, the percent damage was 100% in assay [3] (200 gai/ha V, WT tobacco plants 1-9); 100% in assay [3] (500 gai/ha V, WT tobacco plants 1-9); 100% and 80% in assay [4] (500 gai/ha V).
